From patent US7169818B2, “Lysophosphatidic acid receptor agonists and antagonists” (University of Virginia Patent Foundation, priority 2000, dated 2007)
Entries after “also recorded” stand apart in the source; their conditions may differ. Each block holds one compound with its values, some of them ahead of it.

What was measured:
human LPA3 = target: T1, human LPA3 (Homo sapiens, UniProt Q9UBY5); test: GTP[γ35S] binding, LPA3-transfected HEK293T cell membranes; type: biochemical; parameters: expressed in transfected cells; host or cells: HEK293T (transient)
T1 sequence (Q9UBY5 1-353): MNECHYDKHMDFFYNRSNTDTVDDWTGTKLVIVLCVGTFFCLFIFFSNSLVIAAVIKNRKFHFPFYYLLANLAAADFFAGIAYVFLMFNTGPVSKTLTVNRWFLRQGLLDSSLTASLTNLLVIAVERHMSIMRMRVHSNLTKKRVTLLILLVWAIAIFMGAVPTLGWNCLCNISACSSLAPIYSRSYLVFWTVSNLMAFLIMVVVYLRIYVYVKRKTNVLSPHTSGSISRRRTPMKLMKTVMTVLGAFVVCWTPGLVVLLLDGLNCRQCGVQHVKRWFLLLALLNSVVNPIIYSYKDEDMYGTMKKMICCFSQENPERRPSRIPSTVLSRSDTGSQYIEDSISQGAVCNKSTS
Protocol: (§1) The appropriate receptor plasmid DNA (encoding mouse LPA1, human LPA2 or human LPA3) was mixed with equal amounts of expression plasmids (pcDNA3) encoding a mutated (C351F) rat Gi2a, cow β1, and γ2 proteins and these DNAs were used to transfect monolayers of HEK293T cells (where ‘T’ indicates expression of the SV-40 virus large T antigen) using the calcium phosphate precipitate method. After about 60 hours, cells were harvested, membranes were prepared, aliquoted and stored at −70° C. until use.
(§2) The GTP[35 γS] assay was performed as described by us previously. Membranes containing 5 ug of protein were incubated in 0.1 ml GTP-binding buffer (in mM: HEPES 50, NaCl 100, MgCl2 10, pH7.5) containing […], […], 0.1 nM GTP[35 γS] (1200 Ci/mmol), and indicated lipid(s) for 30 minutes at 30° C. Samples were analyzed for membrane-bound radionuclide using a Brandel Cell Harvester (Gaithersburg, Md.).
(§3) The X-intercept of the linear transformation is equal to the inverse log of the KI.
(§4) Membranes prepared from these cells are used to measure GTPγ[^35S] binding as a function of test compound concentration. The resulting dose-response curves provide relative potency (EC50) and efficacy (Emax) for the test compounds.

human LPA2 = human LPA2 (Homo sapiens, UniProt Q9HBW0); test: GTP[γ35S] binding, LPA2-transfected HEK293T cell membranes; type: biochemical; parameters: expressed in transfected cells; host or cells: HEK293T (transient); details: GTP[γ35S] binding
Protocol: as §1, §2, §4

LPP3 (PAP2b) = target: T2, LPP3 (PAP2b) (Homo sapiens, UniProt O14495); test: LPP inhibition, competition with [32P]LPA; type: biochemical; details: for rank order of inhibition of the three LPPs: LPP1 (PAP2a), LPP2 (PAP2c), LPP3 (PAP2b)
T2 sequence (O14495 1-311): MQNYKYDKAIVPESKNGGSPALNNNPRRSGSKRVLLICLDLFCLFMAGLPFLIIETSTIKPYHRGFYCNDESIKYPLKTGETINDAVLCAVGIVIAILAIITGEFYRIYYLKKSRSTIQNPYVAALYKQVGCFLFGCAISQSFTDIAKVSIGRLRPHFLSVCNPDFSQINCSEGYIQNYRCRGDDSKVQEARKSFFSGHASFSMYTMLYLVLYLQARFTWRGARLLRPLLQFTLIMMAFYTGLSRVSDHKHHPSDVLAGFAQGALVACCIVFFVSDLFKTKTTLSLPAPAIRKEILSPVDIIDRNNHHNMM
Protocol: NOHPP was also tested for activity at the three cloned LPPs. Although the phosphonate head group eliminates the possibility of NOHPP acting as a substrate, it is possible that the compound could be a competitive inhibitor.

mouse LPA1 = mouse LPA1 (Mus musculus, UniProt P61793); test: GTP[γ35S] binding, LPA1-transfected HEK293T (or RH7777) cell membranes; type: biochemical; parameters: expressed in transfected cells; host or cells: HEK293T (transient); for part of the results RH7777 membranes
Protocol: as §1, §2, §3, §4

human platelets = details: previously reported; cited from earlier work
Xenopus laevis ooctyes = details: previously reported; cited from earlier work
LPA receptors = test: whole cell assays of calcium mobilization or inhibition of cAMP accumulation, agonist activity; type: cell-based
Protocol: Assays for cAMP accumulation were conducted on populations of 5×10^5 cells stimulated with […] in the presence of the phosphodiesterase inhibitor isomethylbutylxanthine (IBMX) for 15 minutes at 30° C. cAMP was measured by automated radioimmunoassay.
A FLIPR™ (Molecular Devices, Inc.) was used to measure intracellular calcium in A431 and HEK293T cells. A431 cells were seeded (˜50,000 cells/well) in 96-well clear bottom black microplates (Corning Costar Corp., Cambridge, Mass.) and left overnight in CO2 incubator at 37° C. HEK293T cells were treated likewise, but seeded onto poly D-lysine coated microplates (Becton Dickinson, Franklin Lakes, N.J.). A431 cells were dye-loaded with 4 μM Fluo-3 AM ester (Molecular Probes Inc., Eugene, Oreg.) in a loading buffer (1×HBSS buffer, pH 7.4, containing 20 mM HEPES, 0.1% BSA, and 2.5 mM probenecid) for 1 hour at 37° C. Cells were then washed four times with the loading buffer and exposed in the FLIPR™ to sets of compounds. HEK293T cells were loaded with 2 μM Fluo-4 AM ester (Molecular Probes Inc., Eugene, Oreg.) in the same loading buffer without probenecid for 30 minutes and washed four times before being exposed to compounds in the FLIPR™. In all cases, each concentration of each compound was tested in at least quintuplicate.

Chain of mouse LPA1 (P61793 whole entry): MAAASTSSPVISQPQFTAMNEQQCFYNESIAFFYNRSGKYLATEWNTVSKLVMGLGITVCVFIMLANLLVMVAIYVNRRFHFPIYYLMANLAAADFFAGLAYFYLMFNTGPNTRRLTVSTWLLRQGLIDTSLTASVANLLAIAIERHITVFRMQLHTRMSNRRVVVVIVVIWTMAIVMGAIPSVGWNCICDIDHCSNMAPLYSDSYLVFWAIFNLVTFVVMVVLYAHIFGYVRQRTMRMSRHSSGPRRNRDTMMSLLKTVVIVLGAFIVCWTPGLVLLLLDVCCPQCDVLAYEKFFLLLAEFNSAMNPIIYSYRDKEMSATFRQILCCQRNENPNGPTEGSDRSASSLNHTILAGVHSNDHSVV
Chain of human LPA2 (Q9HBW0 whole entry): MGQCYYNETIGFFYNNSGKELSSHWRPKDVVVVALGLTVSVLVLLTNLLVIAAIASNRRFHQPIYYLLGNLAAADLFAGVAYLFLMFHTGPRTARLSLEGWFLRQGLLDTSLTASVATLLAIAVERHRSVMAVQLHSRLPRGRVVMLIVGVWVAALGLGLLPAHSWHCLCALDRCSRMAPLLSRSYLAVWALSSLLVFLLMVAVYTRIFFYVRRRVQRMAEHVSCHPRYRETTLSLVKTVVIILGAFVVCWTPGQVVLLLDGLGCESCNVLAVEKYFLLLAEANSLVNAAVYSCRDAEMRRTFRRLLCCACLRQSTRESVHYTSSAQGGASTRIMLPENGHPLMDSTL

EC50 (human LPA3; agonist activity, GTP[γ35S] binding, read-out: LP A3 EC50): 262 nM
LP A3 Emax (human LPA3; efficacy compared to LPA (LPA = 100)): 100
EC50 (human LPA2; agonist activity, read-out: LP A2 EC50): 6.8 nM
Compound: 1-acyl, 2-hydroxyl-sn-glycerol-3-phosphate [LPA, reference compound]

rank order of inhibition of the three LPPs (LPP3 (PAP2b)): LPP3>LPP1>>LPP2
inhibition of LPP3 (LPP3 (PAP2b); NOHPP in competition with 50 nM [32P]LPA): inhibited
Compound: CCCCCCCC/C=C\CCCCCCCC(=O)NCCC(O)P(=O)(O)O (racemic) [NOHPP, (9Z)-N-(rac-3-hydroxy-3-phosphonopropyl)octadec-9-enamide]
rank order of inhibition of the three LPPs (LPP3 (PAP2b); listed as VPC12031): markedly better at the PAP2b (LPP3) than PAP2a (LPP1) which in turn is better than PAP2c (LPP2)
agonist activity / efficacy relative to LPA at LPA3 (human LPA3; GTP[γ35S] binding): far less efficacious; also recorded: little activity
agonist potency relative to LPA at LPA3 (human LPA3; GTP[γ35S] binding): distinctly less potent; also recorded: greater than two log orders less potent
agonist activity / efficacy relative to LPA at LPA2 (human LPA2): as efficacious as; also recorded: fullly efficacious
agonist potency relative to LPA at LPA2 (human LPA2): somewhat less potent than; also recorded: about one log order less potent
agonist activity / efficacy relative to LPA at LPA1 (mouse LPA1; GTP[γ35S] binding): as efficacious as; also recorded: fullly efficacious
agonist potency relative to LPA at LPA1 (mouse LPA1; GTP[γ35S] binding): somewhat less potent than; also recorded: about one log order less potent

Compound: CCCCCCCCCCCCCCCC(=O)N[C@@H](COP(=O)(O)O)C(=O)O [NASPA, N-palmitoyl serine phosphate]
platelet aggregation (literature) (human platelets): antagonize
oocyte depolarization (literature) (Xenopus laevis ooctyes): antagonize

Compound: CCCCCCCCCCCCCCCC(=O)N[C@@H](CCCC)COP(=O)(O)O [PNPA, N-palmitoyl-norleucinol-1-phosphate]
platelet aggregation (literature) (human platelets): aggregates human platelets without regard to stereoselectivity

antagonist activity at LPA1 (mouse LPA1; block of LPA-induced GTP[γ35S] binding): did block LPA activity
Compound: CCCCCCCC/C=C\CCCCCCCC(=O)N[C@@H](COP(=O)(O)O)Cc1ccccc1 [VPC12084]
agonist activity in whole cell assays (LPA receptors): appreciable agonist activity

Compound: CCCCCCCC/C=C\CCCCCCCC(=O)N[C@H](C)COP(=O)(O)O [VPC12086]
agonist potency relative to LPA at LPA1 (mouse LPA1; GTP[γ35S] binding): more potent than 1-oleoyl LPA; also recorded: more potent and efficacious than LPA
